# Patent US5358712A, “Radiopharmaceutical agents for the detection of Alzheimer's disease” (Regents of the University of Minnesota, priority 1993, dated 1994)
# “Also recorded” adds a separate entry of the source.
# Columns and labels:
# rat brain = assay: Ex vivo autoradiographic studies, regional distribution in the rodent brain; parameters: species or system rat (male Wistar); settings: 3 hours
# Description: Four male Wistar rats weighing 300-330 g. were anesthetized with diethyl ether. While under anesthesia two animals each received an intravenous dose of 300 μCi of (-)-4-[^125 I]HIPP in […] of 50% aqueous ethanol. The second pair of animals received an iv dose of (+)-4-[^125I]HIPP (170 μCi) in the same solvent. The animals were sacrificed by decapitation three hours following radiotracer administration. The brains were harvested, embedded in Tissue Tek OCT embedding medium and frozen to -38° C. Twenty-micron thick brain sections were obtained at -15° C. using a Reicheft HistoSTAT cryostat microtome. The sections were dried and opposed to Kodak NMC film for autoradiography accompanied by external standards (^125 I-labelled microscales from Amersham). Images were subsequently digitized based on the linear scale obtained from these standards.
# [1] = Tissue distribution (biodistribution) of radioiodinated compound in the rat; settings: for injected dose found in the brain: 5 minutes post injection; for concentration of radioactivity in the brain over time: duration of the study (3 hours); for Brain: Blood Ratio / Heart: Blood Ratio / radioactivity in blood / radioactivity in brain / radioactivity in heart / radioactivity in kidney / radioactivity in liver / radioactivity in lung / radioactivity in muscle / radioactivity in spleen: iv; for level of radioactivity in the blood: throughout the study; for brain retention (in words): rodent (and monkey)
# vesamicol receptor = assay: Blocking experiments: inhibition of radiotracer accumulation in the rat by coadministered compound; type: in vivo, rat (male Wistar); settings: rat, 60 min; for reduction of accumulation of radioactivity in the brain / reduction of accumulation of radioactivity in the heart: coadministered blocker; for Brain: Blood Ratio / Heart: Blood Ratio / radioactivity in liver / radioactivity in blood / radioactivity in brain / radioactivity in heart / radioactivity in kidney / radioactivity in lung / radioactivity in muscle / radioactivity in spleen: iv
# Procedure, shortened: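 Male Wistar rats (n=3/group) got iv radiotracer, alone or coadministered with blocker (e.g. (+)/(−)-HBrPP·HCl 1.3 μmol/kg, vesamicol·HCl 1.1 μmol/kg, or 0.31–0.53 mg/kg in other series). Blood and tissues taken 60 min post-injection to assess radiotracer accumulation.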
# [2] = system: vesicular acetylcholine storage; settings: cited from earlier work; for vesamicol-like inhibitory activity (in words): Kaufman et al 1988
# [3] = + (dl)-vesamicol HCl 0.3 (Table 3) or 0.31 mg/kg
smiles,measurement,setting,value
"OC(Cc1ccc([125I])cc1)CN1CCC(c2ccccc2)CC1 (single isomer, unassigned; (-)) [(-)-4-[^125 l]HIPP] [2-Hydroxy-3-(4-iodophenyl)-1-(4-phenylpiperidyl)propane]",radioactivity in cerebellar molecular layer relative to granular layer,rat brain,slightly higher concentration
same,radioactivity in frontal cortex and caudate-putamen,rat brain,Moderate levels
same,radioactivity in pineal gland and nuclei of fifth and seventh cranial nerves,rat brain,highest levels
same,radioactivity in the white matter,rat brain,relatively low
same,injected dose found in the brain,"[1]; rat, listed as (-)-[^125 I]5",1.94 % of the injected dose
same,injected dose found in the heart,"[1]; rat, 5 minutes post-injection, listed as (-)-[^125 I]5",1.2 % of the injected dose
same,reduction of injected dose in the heart,"[1]; rat, 5 minutes to 3 hours",50%
same,injected dose found in the heart,"[1]; rat, after 3 hours",0.59 % of the injected dose
same,concentration of radioactivity in the brain over time,"[1]; rat, listed as (-)-[^125 I]5",remained essentially stable
same,Brain: Blood Ratio,"[1]; rat, 5 min",12.3
same,Heart: Blood Ratio,"[1]; rat, 5 min",16.4
same,radioactivity in blood,"[1]; rat, 5 min",0.09 % dose/g
same,radioactivity in brain,"[1]; rat, 5 min",1.03 % dose/g
same,radioactivity in heart,"[1]; rat, 5 min",1.32 % dose/g
same,radioactivity in kidney,"[1]; rat, 5 min",2.89 % dose/g
same,radioactivity in liver,"[1]; rat, 5 min",1.33 % dose/g
same,radioactivity in lung,"[1]; rat, 5 min",8.62 % dose/g
same,radioactivity in muscle,"[1]; rat, 5 min",0.35 % dose/g
same,radioactivity in spleen,"[1]; rat, 5 min",0.87 % dose/g
same,Brain: Blood Ratio,"[1]; rat, 30 min",31.3
same,Heart: Blood Ratio,"[1]; rat, 30 min",26.8
same,radioactivity in blood,"[1]; rat, 30 min",0.03 % dose/g
same,radioactivity in brain,"[1]; rat, 30 min",0.94 % dose/g
same,radioactivity in heart,"[1]; rat, 30 min",0.74 % dose/g
same,radioactivity in kidney,"[1]; rat, 30 min",2.23 % dose/g
same,radioactivity in liver,"[1]; rat, 30 min",2.28 % dose/g
same,radioactivity in lung,"[1]; rat, 30 min",4.80 % dose/g
same,radioactivity in muscle,"[1]; rat, 30 min",0.19 % dose/g
same,radioactivity in spleen,"[1]; rat, 30 min",1.09 % dose/g
same,Brain: Blood Ratio,"[1]; rat, 60 min",55.5
same,Heart: Blood Ratio,"[1]; rat, 60 min",40.3
same,radioactivity in blood,"[1]; rat, 60 min",0.02 % dose/g
same,radioactivity in brain,"[1]; rat, 60 min",0.98 % dose/g
same,radioactivity in heart,"[1]; rat, 60 min",0.72 % dose/g
same,radioactivity in kidney,"[1]; rat, 60 min",1.85 % dose/g
same,radioactivity in liver,"[1]; rat, 60 min",2.0 % dose/g
same,radioactivity in lung,"[1]; rat, 60 min",3.33 % dose/g
same,radioactivity in muscle,"[1]; rat, 60 min",0.18 % dose/g
same,radioactivity in spleen,"[1]; rat, 60 min",1.40 % dose/g
same,Brain: Blood Ratio,"[1]; rat, 180 min",69.7
same,Heart: Blood Ratio,"[1]; rat, 180 min",42.5
same,radioactivity in blood,"[1]; rat, 180 min",0.01 % dose/g
same,radioactivity in brain,"[1]; rat, 180 min",0.94 % dose/g
same,radioactivity in heart,"[1]; rat, 180 min",0.57 % dose/g
same,radioactivity in kidney,"[1]; rat, 180 min",1.63 % dose/g
same,radioactivity in liver,"[1]; rat, 180 min",2.43 % dose/g
same,radioactivity in lung,"[1]; rat, 180 min",2.52 % dose/g
same,radioactivity in muscle,"[1]; rat, 180 min",0.16 % dose/g
same,radioactivity in spleen,"[1]; rat, 180 min",1.21 % dose/g
same,level of radioactivity in the blood,[1]; rat,low
same,brain retention (in words),[1],comparable retention
same,reduction of accumulation of radioactivity in the brain,vesamicol receptor; listed as (-)-[^125 I]5,70%
same,reduction of accumulation of radioactivity in the heart,vesamicol receptor; listed as (-)-[^125 I]5,84%
same,Brain: Blood Ratio,vesamicol receptor; + (+)-7 HCl 0.53 mg/kg,5.6
same,Heart: Blood Ratio,vesamicol receptor; + (+)-7 HCl 0.53 mg/kg,2.5
same,radioactivity in liver,vesamicol receptor; + (+)-7 HCl 0.53 mg/kg,2.87 % dose/g of tissue
same,Brain: Blood Ratio,vesamicol receptor; + (-)-7 HCl 0.53 mg/kg,7.1
same,Heart: Blood Ratio,vesamicol receptor; + (-)-7 HCl 0.53 mg/kg,3.0
same,radioactivity in liver,vesamicol receptor; + (-)-7 HCl 0.53 mg/kg,1.90 % dose/g of tissue
same,Brain: Blood Ratio,vesamicol receptor; [3],12.7
same,Heart: Blood Ratio,vesamicol receptor; [3],4.9
same,Brain: Blood Ratio,vesamicol receptor; radiotracer only (control),42.7
same,Heart: Blood Ratio,vesamicol receptor; radiotracer only (control),36.5
OCCN1CCC(c2ccccc2)CC1 [Compound 4],vesamicol-like inhibitory activity (in words),[2]; Rogers et al 1989,weak inhibitors; also recorded: very weak inhibitor
same,potency relative to vesamicol,[2]; Rogers et al 1989,two hundred and fifty times less potent
CC(O)CN1CCC(c2ccccc2)CC1 (centres unmarked) [Compound 14b],increase in activity relative to ethanol analog 4,[2]; addition of an α-methyl group,thirty-fold increase in activity
"OC(Cc1ccc([125I])cc1)CN1CCC(c2ccccc2)CC1 (single isomer, unassigned; (+)) [(+)-4-[^125 l]HIPP] [2-Hydroxy-3-(4-iodophenyl)-1-(4-phenylpiperidyl)propane]",radioactivity in cerebellar molecular layer relative to granular layer,rat brain,slightly higher concentration
same,radioactivity in frontal cortex and caudate-putamen,rat brain,Moderate levels
same,radioactivity in pineal gland and nuclei of fifth and seventh cranial nerves,rat brain,highest levels
same,radioactivity in the white matter,rat brain,relatively low
same,tissue distribution profile compared with (-)-[^125 I]5,[1]; rat,similar
same,injected dose found in the brain,"[1]; rat, listed as (+)-[^125 I]5",2.27 % of the injected dose
same,injected dose found in the heart,"[1]; rat, 5 minutes post-injection, listed as (+)-[^125 I]5",1.23 % of the injected dose
same,decrease of radioactivity in the heart,"[1]; rat, between 5 and 30 minutes",32%
same,concentration of radioactivity in the brain over time,"[1]; rat, listed as (+)-[^125 I]5",remained essentially constant
same,Brain: Blood Ratio,"[1]; rat, 5 min",15.2
same,Heart: Blood Ratio,"[1]; rat, 5 min",22.7
same,Brain: Blood Ratio,"[1]; rat, 30 min",32.4
same,Heart: Blood Ratio,"[1]; rat, 30 min",32.7
same,Brain: Blood Ratio,"[1]; rat, 60 min",44.3
same,Heart: Blood Ratio,"[1]; rat, 60 min",40.2
same,Brain: Blood Ratio,"[1]; rat, 180 min",44.8
same,Heart: Blood Ratio,"[1]; rat, 180 min",28.2
same,level of radioactivity in the blood,[1]; rat,low
same,brain retention (in words),[1],comparable retention
same,reduction of accumulation of radioactivity in the brain,vesamicol receptor; listed as (+)-[^125 I]5,53%-58%
same,reduction of accumulation of radioactivity in the heart,vesamicol receptor; listed as (+)-[^125 I]5,74% -76%
same,Brain: Blood Ratio,vesamicol receptor; + (+)-7 HCl 0.53 mg/kg,3.9
same,Heart: Blood Ratio,vesamicol receptor; + (+)-7 HCl 0.53 mg/kg,1.8
same,radioactivity in blood,vesamicol receptor; + (+)-7 HCl 0.53 mg/kg,0.06 % dose/g of tissue
same,radioactivity in brain,vesamicol receptor; + (+)-7 HCl 0.53 mg/kg,0.32 % dose/g of tissue
same,radioactivity in heart,vesamicol receptor; + (+)-7 HCl 0.53 mg/kg,0.15 % dose/g of tissue
same,radioactivity in kidney,vesamicol receptor; + (+)-7 HCl 0.53 mg/kg,0.47 % dose/g of tissue
same,radioactivity in liver,vesamicol receptor; + (+)-7 HCl 0.53 mg/kg,1.13 % dose/g of tissue
same,radioactivity in lung,vesamicol receptor; + (+)-7 HCl 0.53 mg/kg,1.29 % dose/g of tissue
same,radioactivity in muscle,vesamicol receptor; + (+)-7 HCl 0.53 mg/kg,0.08 % dose/g of tissue
same,radioactivity in spleen,vesamicol receptor; + (+)-7 HCl 0.53 mg/kg,0.71 % dose/g of tissue
same,radioactivity in spleen,vesamicol receptor; + (-)-7 HCl 0.53 mg/kg,0.57 % dose/g of tissue
same,Brain: Blood Ratio,vesamicol receptor; + (-)-7 HCl 0.53 mg/kg,4.5
same,Heart: Blood Ratio,vesamicol receptor; + (-)-7 HCl 0.53 mg/kg,2.0
same,radioactivity in blood,vesamicol receptor; + (-)-7 HCl 0.53 mg/kg,0.05 % dose/g of tissue
same,radioactivity in brain,vesamicol receptor; + (-)-7 HCl 0.53 mg/kg,0.32 % dose/g of tissue
same,radioactivity in heart,vesamicol receptor; + (-)-7 HCl 0.53 mg/kg,0.16 % dose/g of tissue
same,radioactivity in kidney,vesamicol receptor; + (-)-7 HCl 0.53 mg/kg,0.54 % dose/g of tissue
same,radioactivity in liver,vesamicol receptor; + (-)-7 HCl 0.53 mg/kg,0.90 % dose/g of tissue
same,radioactivity in lung,vesamicol receptor; + (-)-7 HCl 0.53 mg/kg,1.51 % dose/g of tissue
same,radioactivity in muscle,vesamicol receptor; + (-)-7 HCl 0.53 mg/kg,0.09 % dose/g of tissue
same,Brain: Blood Ratio,vesamicol receptor; [3],9.7
same,Heart: Blood Ratio,vesamicol receptor; [3],3.8
same,radioactivity in blood,vesamicol receptor; [3],0.04 % dose/g of tissue
same,radioactivity in brain,vesamicol receptor; [3],0.36 % dose/g of tissue
same,radioactivity in heart,vesamicol receptor; [3],0.15 % dose/g of tissue
same,radioactivity in kidney,vesamicol receptor; [3],0.46 % dose/g of tissue
same,radioactivity in liver,vesamicol receptor; [3],2.23 % dose/g of tissue
same,radioactivity in lung,vesamicol receptor; [3],1.11 % dose/g of tissue
same,radioactivity in muscle,vesamicol receptor; [3],0.08 % dose/g of tissue
same,radioactivity in spleen,vesamicol receptor; [3],0.68 % dose/g of tissue
same,Brain: Blood Ratio,vesamicol receptor; radiotracer only (control),28.7
same,Heart: Blood Ratio,vesamicol receptor; radiotracer only (control),39.8
same,radioactivity in blood,vesamicol receptor; radiotracer only (control),0.02 % dose/g of tissue
same,radioactivity in brain,vesamicol receptor; radiotracer only (control),0.76 % dose/g of tissue
same,radioactivity in heart,vesamicol receptor; radiotracer only (control),0.60 % dose/g of tissue
same,radioactivity in kidney,vesamicol receptor; radiotracer only (control),1.63 % dose/g of tissue
same,radioactivity in liver,vesamicol receptor; radiotracer only (control),1.38 % dose/g of tissue
same,radioactivity in lung,vesamicol receptor; radiotracer only (control),3.46 % dose/g of tissue
same,radioactivity in muscle,vesamicol receptor; radiotracer only (control),0.13 % dose/g of tissue
same,radioactivity in spleen,vesamicol receptor; radiotracer only (control),1.10 % dose/g of tissue
CC(O)CN1CCC(c2ccccc2)CC1 (centres unmarked) [Compound 14],vesamicol-like inhibitory activity (in words),[2]; Rogers et al 1989,weak inhibitors
